Assay results: patent publication US12139471B2, “NLRP3 inflammasome inhibitors” (Novartis AG, priority 2019, dated 2024)
Counter-ions that a name gives are not always drawn. Like-named read-outs stand apart in the source and are kept apart here.

Target: T1, NLRP3 inflammasome (Homo sapiens, UniProt Q96P20)
T1 construct: host or cells: THP-1 cells, PMA-differentiated
Assay: IL-1β secretion assay (nigericin-activated, PMA-differentiated THP-1 cells, HTRF)
Type: cell-based
Settings: compound 1 hour, then 15 μM nigericin, 3 hours, IL-1β by HTRF
Description: 10 μL supernatant was removed, and IL-1β levels were monitored using an HTRF assay (CisBio, #62IL1PEC) according to manufacturers' instructions. Viability and pyroptosis was monitored with the addition of PrestoBlue cell viability reagent (Life Technologies, #A13261) directly to the cell culture plate.
IC50 values were calculated from the plot of percentage of inhibition versus the inhibitor concentration by a logistics fit according to: y=A2+(A1−A2)/(1+(x/IC50)^p) where y is the %-inhibition at the inhibitor concentration, x. A1 is the lowest inhibition value, i.e. 0%, and A2 the maximum inhibition value, i.e. 100%. The exponent, p, is the Hill coefficient. The curve fitting was conducted with an internally developed software suite.
NLRP3-dependent IL-1β secretion was stimulated in PMA-differentiated THP-1 cells by the addition of nigericin, and cytokines were measured in the […] after 3 hours. As discussed above, activation of the NLRP3 inflammasome requires both an NF-kB-dependent priming step and the addition of a NLRP3 activator.

[1] = IL-1β IC50, PMA-differentiated THP-1 cells
[2] = PMA-differentiated THP-1 cells, read-out: IL-1β IC50

T1 sequence (Q96P20 whole entry): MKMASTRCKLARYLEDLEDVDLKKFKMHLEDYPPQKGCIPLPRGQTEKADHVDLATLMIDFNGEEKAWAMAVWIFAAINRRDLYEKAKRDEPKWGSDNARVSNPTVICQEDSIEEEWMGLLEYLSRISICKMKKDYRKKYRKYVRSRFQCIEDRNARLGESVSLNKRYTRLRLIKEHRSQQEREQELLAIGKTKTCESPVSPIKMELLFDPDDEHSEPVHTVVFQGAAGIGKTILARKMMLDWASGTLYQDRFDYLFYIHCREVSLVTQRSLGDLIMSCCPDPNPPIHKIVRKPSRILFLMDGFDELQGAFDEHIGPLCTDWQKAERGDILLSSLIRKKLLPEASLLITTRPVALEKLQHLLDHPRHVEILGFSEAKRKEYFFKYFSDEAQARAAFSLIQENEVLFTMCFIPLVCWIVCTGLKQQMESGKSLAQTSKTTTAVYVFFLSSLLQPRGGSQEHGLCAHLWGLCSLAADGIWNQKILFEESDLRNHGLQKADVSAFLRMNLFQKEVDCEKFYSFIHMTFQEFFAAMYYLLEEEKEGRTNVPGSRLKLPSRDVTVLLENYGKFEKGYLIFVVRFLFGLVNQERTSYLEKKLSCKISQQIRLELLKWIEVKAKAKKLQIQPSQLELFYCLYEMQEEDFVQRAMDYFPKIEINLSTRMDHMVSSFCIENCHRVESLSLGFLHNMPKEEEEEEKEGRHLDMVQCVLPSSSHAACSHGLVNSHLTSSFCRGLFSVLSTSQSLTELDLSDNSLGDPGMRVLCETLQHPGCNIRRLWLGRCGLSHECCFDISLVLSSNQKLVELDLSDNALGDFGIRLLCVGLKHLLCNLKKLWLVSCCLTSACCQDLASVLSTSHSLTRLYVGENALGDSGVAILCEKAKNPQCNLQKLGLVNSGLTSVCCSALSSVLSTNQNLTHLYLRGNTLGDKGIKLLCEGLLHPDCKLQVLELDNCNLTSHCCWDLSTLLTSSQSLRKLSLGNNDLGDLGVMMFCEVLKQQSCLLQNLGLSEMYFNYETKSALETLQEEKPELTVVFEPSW

SMILES | IC50 [1] [nM] | IC50 [2] [nM]
Cc1cc(C(F)(F)F)cc(O)c1-c1ccc(NC2CCC3CCC2N3C)nn1 (single isomer, unassigned) [Ex 85b] | 1.3 | 
Cc1cc(C(F)(F)F)cc(O)c1-c1ccc(NC[C@](C)(O)CO)nn1 (single isomer, unassigned) [Ex 88a] |  | 62.3
Cc1cc(C(F)(F)F)cc(O)c1-c1ccc(NC[C@H]2CC(F)(F)CN2)nn1 [Ex 23, (R)-2-(6-(((4,4-Difluoropyrrolidin-2-yl)methyl)amino)pyridazin-3-yl)-3-methyl-5-(trifluoromethyl)phenol] |  | 93.4
Cc1cc(C(F)(F)F)cc(O)c1-c1ccc(NC[C@@H]2CCCCN2CCO)nn1 (single isomer, unassigned) [Ex 84b] |  | 53.3
OCCNc1ccc(-c2c(O)cc(C(F)(F)F)cc2Cl)nn1 [Ex 37, 3-Chloro-2-(6-((2-hydroxyethyl)amino)pyridazin-3-yl)-5-(trifluoromethyl)phenol] |  | 381
Cc1cc(C(F)(F)F)cc(O)c1-c1ccc(NC[C@H](O)C(C)C)nn1 (single isomer, unassigned) [Ex 90b] |  | 115
C[C@]1(O)C[C@@H](Nc2cc(C(F)(F)F)c(-c3ccc(C(F)(F)F)cc3O)nn2)C1 [Ex 66, 2-(6-(((cis)-3-Hydroxy-3-methylcyclobutyl)amino)-4-(trifluoromethyl)pyridazin-3-yl)-5-(trifluoromethyl)phenol] |  | 187
Cc1cc(C(F)(F)F)cc(O)c1-c1ccc(N[C@@H]2CCC(=O)NC2)nn1 [Ex 61, (R)-5-((6-(2-Hydroxy-6-methyl-4-(trifluoromethyl)phenyl)pyridazin-3-yl)amino)piperidin-2-one] |  | 65.8
Cc1cc(C)c(-c2ccc(NCCc3ccc(S(N)(=O)=O)cc3)nn2)c(O)c1 [Ex 103, 4-(2-((6-(2-Hydroxy-4,6-dimethylphenyl)pyridazin-3-yl)amino)ethyl)benzenesulfonamide] |  | 136
Cc1cc(C(F)(F)F)cc(O)c1-c1ccc(NC[C@@](C)(O)CO)nn1 (single isomer, unassigned) [Ex 88b] |  | 60.5
Cc1cc(C(F)(F)F)cc(O)c1-c1cc(C(F)(F)F)c(N[C@H]2C[C@@](C)(O)C2)nn1 [Ex 56, 2-(6-(((cis)-3-Hydroxy-3-methylcyclobutyl)amino)-5-(trifluoromethyl)pyridazin-3-yl)-3-methyl-5-(trifluoromethyl)phenol] |  | 8.3
Cc1cc(N[C@H]2C[C@@](C)(O)C2)nnc1-c1ccc(OC(F)(F)F)cc1O [Ex 81, 2-(6-(((cis)-3-Hydroxy-3-methylcyclobutyl)amino)-4-methylpyridazin-3-yl)-5-(trifluoromethoxy)phenol] |  | 130
Cc1cc(C(F)(F)F)cc(O)c1-c1ccc(NC[C@@H]2C[C@@H](F)CN2)nn1 [Ex 76, 2-(6-((((2S,4R)-4-Fluoropyrrolidin-2-yl)methyl)amino)pyridazin-3-yl)-3-methyl-5-(trifluoromethyl)phenol] |  | 89.7
Oc1cc(C(F)(F)F)cc(Cl)c1-c1ccc(N[C@H]2C[C@@H](O)C2)nn1 [Ex 31, 3-Chloro-2-(6-((cis-3-hydroxycyclobutyl)amino)pyridazin-3-yl)-5-(trifluoromethyl)phenol] |  | 167
Cc1cc(C(F)(F)F)cc(O)c1-c1ccc(NC[C@@H](F)C(C)(C)O)nn1 [Ex 60, (R)-2-(6-((2-Fluoro-3-hydroxy-3-methylbutyl)amino)pyridazin-3-yl)-3-methyl-5-(trifluoromethyl)phenol] |  | 139
Cc1cc(-c2c(C)cc(C(F)(F)F)cc2O)nnc1NC1CCC(=O)N(C)C1 (stereo not shown) [Ex 99, 5-((6-(2-Hydroxy-6-methyl-4-(trifluoromethyl)phenyl)-4-methylpyridazin-3-yl)amino)-1-methylpiperidin-2-one] |  | 75
Cc1cc(C(F)(F)F)cc(O)c1-c1ccc(NC[C@](C)(O)C(F)(F)F)nn1 [Ex 78, (S)-3-Methyl-2-(6-((3,3,3-trifluoro-2-hydroxy-2-methylpropyl)amino)pyridazin-3-yl)-5-(trifluoromethyl)phenol HCl-salt] |  | 198
Cc1cc(C(F)(F)F)cc(O)c1-c1cc(C(F)(F)F)c(NCCO)nn1 [Ex 26, 2-(6-((2-Hydroxyethyl)amino)-5-(trifluoromethyl)pyridazin-3-yl)-3-methyl-5-(trifluoromethyl)phenol] |  | 165
Cc1cc(C(F)(F)F)cc(O)c1-c1ccc(NCC2(O)CCCC2)nn1 [Ex 98, 2-(6-(((1-Hydroxycyclopentyl)methyl)amino)pyridazin-3-yl)-3-methyl-5-(trifluoromethyl)phenol] |  | 115
Cc1cc(C(F)(F)F)cc(O)c1-c1ccc(N[C@H]2C[C@](O)(C(F)(F)F)C2)nn1 [Ex 67, 2-(6-(((cis)-3-Hydroxy-3-(trifluoromethyl)cyclobutyl)amino)pyridazin-3-yl)-3-methyl-5-(trifluoromethyl)phenol] |  | 40.1

SMILES | IC50 [1] [nM] | IC50 [2] [nM]
Cc1cc(N[C@H]2C[C@@](C)(O)C2)nnc1-c1ccc(Cl)cc1O [Ex 68, 5-Chloro-2-(6-(((cis)-3-hydroxy-3-methylcyclobutyl)amino)-4-methylpyridazin-3-yl)phenol] |  | 89.3
Cc1cc(C(F)(F)F)cc(O)c1-c1ccc(N[C@H]2CCC[C@H](O)C2)nn1 [Ex 57, 2-(6-(((1S,3S)-3-Hydroxycyclohexyl)amino)pyridazin-3-yl)-3-methyl-5-(trifluoromethyl)phenol] |  | 224
Cc1cc(C(F)(F)F)cc(O)c1-c1ccc(N[C@H]2CC[C@H](O)[C@@H]2O)nn1 (single isomer, unassigned) [Ex 89a] |  | 59.7
Cc1cc(C(F)(F)F)cc(O)c1-c1ccc(NCC(O)(C(F)(F)F)C(F)(F)F)nn1 [Ex 10, 3-Methyl-2-(6((3,3,3-trifluoro-2-hydroxy-2-(trifluoromethyl)propyl)amino)pyridazin-3-yl)-5-(trifluoromethyl)phenol] |  | 349
Cc1cc(C(F)(F)F)cc(O)c1-c1ccc(NC2CCC3CCC2N3CCO)nn1 (single isomer, unassigned) [Ex 86a] |  | 175
Cc1cc(C(F)(F)F)cc(O)c1-c1ccc(N[C@@H]2CCCN3CCC[C@H]23)nn1 (single isomer, unassigned) [Ex 83a] |  | 0.8
Cc1cc(C(F)(F)F)cc(O)c1-c1ccc(N[C@H]2C[C@@](C)(O)C2)nn1 [Ex 2, 2-(6-(((cis)-3-Hydroxy-3-methylcyclobutyl)amino)pyridazin-3-yl)-3-methyl-5-(trifluoromethyl)phenol] |  | 10.2
CC(C)(O)CNc1ccc(-c2c(O)cc(C(F)(F)F)cc2Cl)nn1 [Ex 30, 3-Chloro-2-(6-((2-hydroxy-2-methylpropyl)amino)pyridazin-3-yl)-5-(trifluoromethyl)phenol] |  | 214
Cc1cc(C(F)(F)F)cc(O)c1-c1ccc(Nc2cncnc2)nn1 [Ex 43, 3-Methyl-2-(6-(pyrimidin-5-ylamino)pyridazin-3-yl)-5-(trifluoromethyl)phenol] |  | 281
Cc1ncccc1CNc1ccc(-c2c(O)cc(C(F)(F)F)cc2Cl)nn1 [Ex 34, 3-Chloro-2-(6-(((2-methylpyridin-3-yl)methyl)amino)pyridazin-3-yl)-5-(trifluoromethyl)phenol] |  | 496
Cc1cc(C(F)(F)F)cc(O)c1-c1ccc(OCC(C)(C)O)nn1 [Ex 19, 2-(6-(2-Hydroxy-2-methylpropoxy)pyridazin-3-yl)-3-methyl-5-(trifluoromethyl)phenol] |  | 93.6
Cc1cc(C(F)(F)F)cc(O)c1-c1ccc(N[C@@H]2CC[C@@H](O)[C@H]2O)nn1 (single isomer, unassigned) [Ex 89b] |  | 182
Cc1cc(C(F)(F)F)cc(O)c1-c1ccc(NC2CCC3CCC2N3CCO)nn1 (single isomer, unassigned) [Ex 86b] | 1.8 | 
Oc1cc(C(F)(F)F)cc(Cl)c1-c1ccc(N[C@H]2C[C@H](O)C2)nn1 [Ex 32, 3-Chloro-2-(6-((trans-3-hydroxycyclobutyl)amino)pyridazin-3-yl)-5-(trifluoromethyl)phenol] |  | 218
Cc1cc(C(F)(F)F)cc(O)c1-c1ccc(NC2CCC3CCC2N3C)nn1 (single isomer, unassigned) [Ex 85a] |  | 148
Cc1cc(C(F)(F)F)cc(O)c1-c1ccc(NC2(C)CCCN(C)C2)nn1 (stereo not shown) [Ex 52, 2-(6-((1,3-Dimethylpiperidin-3-yl)amino)pyridazin-3-yl)-3-methyl-5-(trifluoromethyl)phenol TFA-salt] |  | 186
CCN1CCC[C@H]1CNc1ccc(-c2c(C)cc(C(F)(F)F)cc2O)nn1 [Ex 8, (S)-2-(6-(((1-Ethylpyrrolidin-2-yl)methyl)amino)pyridazin-3-yl)-3-methyl-5-(trifluoromethyl)phenol] |  | 24.1
Cc1cc(C(F)(F)F)cc(O)c1-c1ccc(NC[C@H]2CCCCN2CCO)nn1 (single isomer, unassigned) [Ex 84a] |  | 42.5
Cc1cc(C(F)(F)F)cc(O)c1-c1ccc(NC[C@@H]2CC(F)(F)CN2)nn1 [Ex 22, (S)-2-(6-(((4,4-Difluoropyrrolidin-2-yl)methyl)amino)pyridazin-3-yl)-3-methyl-5-(trifluoromethyl)phenol] |  | 80.7
Cc1cc(C(F)(F)F)cc(O)c1-c1ccc(NC(C)(C)CO)nn1 [Ex 79, 2-(6-((1-Hydroxy-2-methylpropan-2-yl)amino)pyridazin-3-yl)-3-methyl-5-(trifluoromethyl)phenol] |  | 370
